Assay: xn = mol fraction of the nth substance listed
Details: Liquid, Vibrating tube method

CCCCCCCCCC [decane] + CCCCCCCC
Details	mass density [kg/m3]
313.19 K, 10000 kPa, x2 = 0.5314	710.43
313.19 K, 10000 kPa, x2 = 0.7736	703.28
313.19 K, 10990 kPa, x2 = 0.5314	711.26
313.19 K, 10990 kPa, x2 = 0.7736	704.16
313.19 K, 12000 kPa, x2 = 0.5314	712.06
313.19 K, 12000 kPa, x2 = 0.7736	705
313.19 K, 13000 kPa, x2 = 0.5314	712.86
313.19 K, 13000 kPa, x2 = 0.7736	705.81
313.19 K, 14000 kPa, x2 = 0.5314	713.65
313.19 K, 14000 kPa, x2 = 0.7736	706.63
313.19 K, 15000 kPa, x2 = 0.5314	714.44
313.19 K, 15000 kPa, x2 = 0.7736	707.47
313.19 K, 16000 kPa, x2 = 0.5314	715.21
313.19 K, 16000 kPa, x2 = 0.7736	708.28
313.19 K, 17000 kPa, x2 = 0.5314	715.97
313.19 K, 17000 kPa, x2 = 0.7736	709.1
313.19 K, 18000 kPa, x2 = 0.5314	716.73
313.19 K, 18000 kPa, x2 = 0.7736	709.83
313.19 K, 19000 kPa, x2 = 0.5314	717.47
313.19 K, 19000 kPa, x2 = 0.7736	710.61
313.19 K, 20000 kPa, x2 = 0.5314	718.2
313.19 K, 20000 kPa, x2 = 0.7736	711.34
313.19 K, 21000 kPa, x2 = 0.5314	718.89
313.19 K, 21000 kPa, x2 = 0.7736	712.07
313.19 K, 22000 kPa, x2 = 0.5314	719.56
313.19 K, 22000 kPa, x2 = 0.7736	712.79
313.19 K, 23000 kPa, x2 = 0.5314	720.23
313.19 K, 23000 kPa, x2 = 0.7736	713.47
313.19 K, 24000 kPa, x2 = 0.5314	720.88
313.19 K, 24000 kPa, x2 = 0.7736	714.14
313.19 K, 25000 kPa, x2 = 0.5314	721.52
313.19 K, 25000 kPa, x2 = 0.7736	714.77
323.13 K, 1000 kPa, x2 = 0.2801	701.5
323.13 K, 2000 kPa, x2 = 0.2801	702.42
323.13 K, 3000 kPa, x2 = 0.2801	703.33
323.13 K, 4000 kPa, x2 = 0.2801	704.26
323.13 K, 5000 kPa, x2 = 0.2801	705.16
323.13 K, 6000 kPa, x2 = 0.2801	706.06
323.13 K, 7000 kPa, x2 = 0.2801	706.95
323.13 K, 8000 kPa, x2 = 0.2801	707.83
323.13 K, 9000 kPa, x2 = 0.2801	708.7
323.13 K, 10000 kPa, x2 = 0.2801	709.57
323.13 K, 10990 kPa, x2 = 0.2801	710.5
323.13 K, 12000 kPa, x2 = 0.2801	711.29
323.13 K, 13000 kPa, x2 = 0.2801	712.12
323.13 K, 14000 kPa, x2 = 0.2801	712.97
323.13 K, 15000 kPa, x2 = 0.2801	713.78
323.13 K, 16000 kPa, x2 = 0.2801	714.58
323.13 K, 17000 kPa, x2 = 0.2801	715.38
323.13 K, 18000 kPa, x2 = 0.2801	716.14
323.13 K, 19000 kPa, x2 = 0.2801	716.9
323.13 K, 20000 kPa, x2 = 0.2801	717.66
323.13 K, 21000 kPa, x2 = 0.2801	718.38
323.13 K, 22000 kPa, x2 = 0.2801	719.06
323.13 K, 23000 kPa, x2 = 0.2801	719.71
323.13 K, 24000 kPa, x2 = 0.2801	720.38
323.13 K, 25000 kPa, x2 = 0.2801	721
323.15 K, 1000 kPa, x2 = 0.5314	694.85
323.15 K, 1000 kPa, x2 = 0.7736	687.38
323.15 K, 1000 kPa, x2 = 0.9623	680.8
323.15 K, 2000 kPa, x2 = 0.5314	695.78
323.15 K, 2000 kPa, x2 = 0.7736	688.41
323.15 K, 2000 kPa, x2 = 0.9623	681.8
323.15 K, 3000 kPa, x2 = 0.5314	696.73
323.15 K, 3000 kPa, x2 = 0.7736	689.33
323.15 K, 3000 kPa, x2 = 0.9623	682.74
323.15 K, 4000 kPa, x2 = 0.5314	697.62
323.15 K, 4000 kPa, x2 = 0.7736	690.27
323.15 K, 4000 kPa, x2 = 0.9623	683.68
323.15 K, 5000 kPa, x2 = 0.5314	698.58
323.15 K, 5000 kPa, x2 = 0.7736	691.21
323.15 K, 5000 kPa, x2 = 0.9623	684.65
323.15 K, 6000 kPa, x2 = 0.5314	699.53
323.15 K, 6000 kPa, x2 = 0.7736	692.18
323.15 K, 6000 kPa, x2 = 0.9623	685.6
323.15 K, 7000 kPa, x2 = 0.5314	700.45
323.15 K, 7000 kPa, x2 = 0.7736	693.12
323.15 K, 7000 kPa, x2 = 0.9623	686.57
323.15 K, 8000 kPa, x2 = 0.5314	701.36
323.15 K, 8000 kPa, x2 = 0.7736	694.08
323.15 K, 8000 kPa, x2 = 0.9623	687.54
323.15 K, 9000 kPa, x2 = 0.5314	702.24
323.15 K, 9000 kPa, x2 = 0.7736	694.99
323.15 K, 9000 kPa, x2 = 0.9623	688.5
323.15 K, 10000 kPa, x2 = 0.5314	703.12
323.15 K, 10000 kPa, x2 = 0.7736	695.89
323.15 K, 10000 kPa, x2 = 0.9623	689.46
323.15 K, 10990 kPa, x2 = 0.5314	703.99
323.15 K, 10990 kPa, x2 = 0.7736	696.8
323.15 K, 10990 kPa, x2 = 0.9623	690.4
323.15 K, 12000 kPa, x2 = 0.5314	704.86
323.15 K, 12000 kPa, x2 = 0.7736	697.73
323.15 K, 12000 kPa, x2 = 0.9623	691.34
323.15 K, 13000 kPa, x2 = 0.5314	705.72

Reference: the NIST ThermoML archive (doi:10.1016/j.jct.2011.08.016)
